Results reported in ChEMBL document CHEMBL1158521, “Photoactive ligands probing the sweet taste receptor. Design and synthesis of highly potent diazirinyl D-phenylalanine derivatives” (Bioorg Med Chem Lett, 2010).
Activity calls are given as the source filed them. No cut-off for these calls is given here.

Assays:
T1R2/T1R3 (Homo sapiens) [1] = molecular target: T1, T1R2/T1R3 (Homo sapiens) (UniProt Q8TE23+Q7RTX0); test: Activity at human T1R2/T1R3 expressed in HEK293T cells co-expressing Galpha-16-gust44 assessed as F340/F380 ratio at 1.25 mM; assay type: cell-based; details: HEK-293T
T1R2/T1R3 (Homo sapiens) [2] = molecular target: T1, T1R2/T1R3 (Homo sapiens); test: Activity at human T1R2/T1R3 expressed in HEK293T cells co-expressing Galpha-16-gust44 assessed as F340/F380 ratio at 1.25 mM in presence of T1R2/T1R3 antagonist lactisole; assay type: functional, cell-based; details: HEK-293T

Activity (T1R2/T1R3 (Homo sapiens) [1]) | Activity (T1R2/T1R3 (Homo sapiens) [2]) | SMILES
Active | inactive | N[C@H](Cc1cccc(C2(C(F)(F)F)N=N2)c1)C(=O)O
Active | inactive | N[C@H](Cc1ccc(C2(C(F)(F)F)N=N2)cc1)C(=O)O
